The results in this text go back to US20130101565A1, “USE OF CARBONIC ANHYDRASE II FOR PRODUCING A DRUG” (CONSEJO SUPERIOR DE INVESTIGACIONES CIENTIFICAS (CSIC), priority 2009, published 2013).

One test concerns Erythropoietin (EPO). The test is described as follows: In vivo renal ischemia-reperfusion: Western Blot for EPO in renal tissue. The arrangement: species or system Swiss strain mice. The note with it: vs I/R, FIG. 3. On the procedure: (§1) Swiss strain mice were used, males with an approximate weight of 25-30 g (Charles River, France). All the procedures were performed under the supervision of the ethics committee of the Institute for Biomedical Research of Barcelona (CSIC) and followed European Union guidelines. The environmental conditions were kept constant, the temperature was 21-22° C., the relative humidity was 70% and the alternative cycles of light/darkness were 12 h. The animals were fed a standard diet of AO4 fodder (Panlab, Barcelona) and water from the Barcelona supply network ad libitum.
(§2) The animals were anaesthesised with Isoflurane, placed in the supine position, and their body temperature was maintained at between 36° C. and 37° C. […]
The renal tissue samples were homogenised in lysis buffer (70 mM sucrose, 2 mM Hepes KOH, 220 mM Mannitol, 0.1 mM EGTA, 1 mM PMSF, 0.1 mM BSA, antiproteases cocktail (SIGMA)); subsequently, the protein concentration thereof was determined. The proteins were determined by means of the Bradford colorimetric method with a commercial reagent from BioRad.
50 μg of protein for each of the groups to be analysed were placed in each well of the 12% acrylamide gel. […]
On the technique in general: In western blotting, separated proteins are transferred to a membrane and probed.

In the next test the test system is PCNA and Stathmin genes. The test is described as follows: In vivo renal ischemia-reperfusion: real-time RT-PCR of regeneration markers PCNA and Stathmin in kidney. The arrangement: species or system Swiss strain mice. The note with it: FIG. 1. As for the experimental part: as §1
The animals were anaesthesised with Isoflurane, placed in the supine position, and their body temperature was maintained at between 36° C. and 37° C. After performing a median laparotomy to access the kidney, carefully putting aside the intestinal packet, bilateral ischemia was induced by clamping both renal arterio-venous pedicles with a non-traumatic microvascular clamp for 45 minutes. Subsequently, the reperfusion period was started, with removal of the clamp, and it was visually verified by observing the return of the blood flow to the kidney. Subsequently, the animal was sutured and administered subcutaneous Buprex (4.16 μg/100 g of weight).
Animals subjected to a sham operation were used as controls. During the entire operation process, the animals were well hydrated and the body temperature was maintained at about 37° C. During the reperfusion time, the animals were stabulated under the control of a veterinary. […]
The RNA of the kidney samples was extracted by means of the TRIzol reagent in accordance with the manufacturer's instructions (Invitrogen, Barcelona). […] The RNA concentrations were calculated by determining the absorbance at 260 nm. The integrity of the RNA thus obtained was examined by analysing the 18s and 28s ribosomal RNA bands detected and analysed in the Bioanalyzer of the Clinical Hospital of Barcelona (Agilent).
The expression of the analysed genes was measured by means of real-time quantitative RT-PCR normalised with the glyceraldehyde 3-phosphate dehydrogenase (GAPDH) housekeeping gene. […]
(In general: In qPCR the cycle at which signal appears reflects the starting amount.)

For test [1], the system named is Proximal tubular epithelial cells from rats (NRK52e). The test is described as follows: In vitro cisplatin-induced damage of renal tubular cells: real-time RT-PCR of PCNA and Ki67. Format: cell-based. Conditions: cis+CAII group: NRK52e, cisplatin 200 μM 6 h, then 10 μg/ml CAII 16 h; vs cis; FIG. 4. As for the experimental part: (§3) Proximal tubular epithelial cells from rats (NRK52e) were kept in culture bottles (75 cm^2), with a culture medium (DMEM) whereto 17.5 mM of glucose and 2.5 mM of glutamine were added; this medium was also supplemented with antibiotics (100 units/ml of penicillin and 100 μg/ml of streptomycin) and 10% foetal calf serum (FCS). The cells were incubated in a humidified atmosphere with 5% CO2 at 37° C.
(§4) The control cells (control) were collected when they reached confluence without any treatment.
Treatment with cisplatin (Sigma) was performed by dissolving the drug in the minimum volume of DMSO (40 μl) and diluting it in PBS at a concentration of 200 μM. After 6 hours, the medium was removed and a new medium was added, without the drug for the CIS group and with 10 μg/ml of CAII for the CIS+CAII group. The samples were collected 16 hours later. […]
The RNA of the samples taken from the cell culture was extracted using the TRIzol reagent in accordance with the manufacturer's instructions (Invitrogen, Barcelona). […] The RNA concentrations were calculated by determining the absorbance at 260 nm. The integrity of the RNA thus obtained was examined by analysing the 18s and 28s ribosomal RNA bands detected and analysed in the Bioanalyzer of the Clinical Hospital of Barcelona (Agilent).
The expression of the analysed genes was measured by means of real-time quantitative RT-PCR normalised with GAPDH. […]

For test [2] the test system is unchanged. In words: In vitro cisplatin-induced damage of renal tubular cells: apoptosis evaluated by activity of caspase 3. Format: cell-based. The note with it: cisplatin+CAII group: NRK52e, cisplatin 200 μM 6 h, then 10 μg/ml CAII 16 h; vs cisplatin; FIG. 5. As for the experimental part: as §3, §4
Treatment with cisplatin (Sigma) was performed by dissolving the drug in the minimum volume of DMSO (40 μl) and diluting it in PBS at a concentration of 200 μM. […]
(§5) The activity of caspase-3 was determined by measuring the proteolysis of the specific substrate (N-acetyl-Asp-Glu-Val-Asp-7-amino-4-methyl coumarin (DEVD-AMC; Biomol, Plymouth Meeting, Pa.). The cell culture samples were homogenised and sonicated in the assay buffer (50 mM HEPES, 10% sucrose, 0.1% CHAPS, 5 mM GSSG, 5 mM DTT). The supernatants of the sample were incubated in this buffer, whereto DEVD-AMC at a concentration of 50 μM was added. The AMC released was quantified for 1 hour and a half at 37° C. by means of fluorospectrophotometry, using 380 nm of excitation and measuring the emission at 450 nm.

A further test deals with caspase 3. In words: In vivo renal ischemia-reperfusion: apoptosis evaluated by activity of caspase 3 in renal tissue. Conditions: FIG. 2. The arrangement: species or system Swiss strain mice. On the procedure: as §1, §2
as §5, with “The renal tissue” for “The cell culture”, “the samples” for “the sample”, “by” for “by means of”

Where [3] appears, read: I/R+AZT group: Azetazolamide 30 mg/kg intraperitoneal one day prior to I/R.

On to `CC(=O)Nc1nnc(S(N)(=O)=O)s1` [azetazolamide, Azetazolamide, reference compound], for which the “amount of EPO in kidney (Western Blot)” value in the test on Erythropoietin (EPO) (setting [3]) is “reduced the amount of EPO”. The “regenerative markers (PCNA and Stathmin mRNA)” value with PCNA and Stathmin genes (setting [3]) was “decrease”.

For the compound carbonic anhydrase II [CAII], the “amount of EPO in kidney (Western Blot)” value with Erythropoietin (EPO) (I/R+CAII group: CAII 5 mg/kg at beginning of reperfusion) is listed as “marked increase”. Moreover, in test [1], the “regeneration (expression of PCNA and Ki67 mRNA)” value is given as “significantly increased regeneration”. Moreover, the “regenerative response (expression of PCNA and Stathmin mRNA)” value with PCNA and Stathmin genes (I/R+CAII group: 45 min ischemia, 24 h reperfusion, CAII 5 mg/kg into inferior vena cava at beginning of reperfusion, vs I/R) is recorded as “marked increase”. In addition, the “regeneration (PCNA and Stathmin mRNA) in undamaged tissue” value with PCNA and Stathmin genes (control+CAII group: no I/R, CAII 5 mg/kg intravenous 24 h prior to sample collection) is on record as “did not induce regeneration”. The “apoptosis (activity of caspase 3)” value in test [2] is “capable of reverting apoptosis”. Further, the “incidence of apoptosis (activity of caspase 3)” value in the test with caspase 3 (I/R+CAII group: CAII 5 mg/kg at beginning of reperfusion, vs I/R) is recorded as “drastically reduced”. In the test on caspase 3 (control+CAII group: no I/R, CAII 5 mg/kg intravenous), the “apoptosis naturally present in healthy tissue (activity of caspase 3)” value is on record as “does not affect”.
